Measurements reported in PMC10648349, “Aromatic Diboronic Acids as Effective KPC/AmpC Inhibitors” (Molecules, 2023).
In brackets after ≈: the same amount, converted by molar mass.

How the values were obtained:
E. faecalis ATCC 29212 = assay: direct antimicrobial activity (disc-diffusion, MIC, MBC); format: cell-based; conditions: Enterococcus faecalis, ATCC29212; for zone of inhibition at 0.4 mg/disc: 0.4 mg per disc, 9 mm disc (linezolid 0.03 mg, 6 mm disc), - no zone, read-out: Diameter of inhibition zone
Method in brief: (§1)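 Disc-diffusion, MIC, MBC (bacteria) and MFC (yeasts) were determined per EUCAST and CLSI recommendations. Diboronic acids were dissolved in DMSO and applied at 0.4 mg per disc for diffusion. References: nitrofurantoin (Gram-negative rods), linezolid (Gram-positive), fluconazole (fungi).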

E. faecium ATCC 6057 = assay: as above; format: cell-based; conditions: Enterococcus faecium, ATCC6057; for zone of inhibition at 0.4 mg/disc: 0.4 mg per disc, 9 mm disc (linezolid 0.03 mg, 6 mm disc), - no zone, read-out: Diameter of inhibition zone
Method in brief: as §1

[1] = tested on: S. aureus ATCC 43300 MRSA; assay: as above; format: cell-based; conditions: Staphylococcus aureus; for zone of inhibition at 0.4 mg/disc: 0.4 mg per disc, 9 mm disc (linezolid 0.03 mg, 6 mm disc), - no zone, read-out: Diameter of inhibition zone
Method in brief: as §1

S. aureus ATCC 6538P = assay: as above; format: cell-based; conditions: Staphylococcus aureus, ATCC6538P; for zone of inhibition at 0.4 mg/disc: 0.4 mg per disc, 9 mm disc (linezolid 0.03 mg, 6 mm disc), - no zone, read-out: Diameter of inhibition zone
Method in brief: as §1

[2] = tested on: S. epidermidis ATCC 12228; assay: as above; format: cell-based; conditions: Staphylococcus epidermidis, ATCC12228; for zone of inhibition at 0.4 mg/disc: 0.4 mg per disc, 9 mm disc (linezolid 0.03 mg, 6 mm disc), - no zone, read-out: Diameter of inhibition zone
Method in brief: as §1

B. subtilis ATCC 6633 = assay: direct antimicrobial activity (disc-diffusion); format: cell-based; conditions: Bacillus subtilis, ATCC6633; 0.4 mg per disc, 9 mm disc (linezolid 0.03 mg, 6 mm disc); - no zone; read-out: Diameter of inhibition zone
Method in brief: as §1

C. krusei ATCC 6258 = assay: antifungal activity (disc-diffusion, MIC, MFC); format: cell-based, Candida krusei; conditions: Pichia kudriavzevii, ATCC6258; for zone of inhibition at 0.4 mg/disc: 0.4 mg per disc, 9 mm disc (fluconazole 0.025 mg, 6 mm disc), - no zone, read-out: Diameter of inhibition zone; for MIC: fluconazole by Etest
Method in brief: as §1

E. coli 76 KPC-2(+) = assay: MIC of tested agent alone, microdilution; format: cell-based; conditions: Escherichia coli; read-out: MIC of agent alone
Method in brief: (§2)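 Two-fold checkerboard dilutions pair β-lactams (1–64 mg/L) with tested agents (4–16 mg/L); agent MICs alone come from parallel microdilution.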

E. coli 77 CMY-2(+) = assay: MIC of tested agent alone, microdilution; format: cell-based; conditions: Escherichia coli; read-out: MIC of agent alone
Method in brief: as §2

[3] = tested on: K. pneumoniae 81 KPC-3(+); assay: MIC of tested agent alone, microdilution; format: cell-based; conditions: Klebsiella pneumoniae; read-out: MIC of agent alone
Method in brief: as §2

[4] = tested on: K. pneumoniae 83 KPC-3(+), CTX-M-3(+); assay: MIC of tested agent alone, microdilution; format: cell-based; conditions: Klebsiella pneumoniae; read-out: MIC of agent alone
Method in brief: as §2

[5] = tested on: K. pneumoniae ATCC BAA-1705 KPC-2(+); assay: MIC of tested agent alone, microdilution; format: cell-based; conditions: Klebsiella pneumoniae, ATCCBAA1705; read-out: MIC of agent alone
Method in brief: as §2

[6] = tested on: P. aeruginosa MUW 700 AmpC(+); assay: MIC of tested agent alone, microdilution; format: cell-based; conditions: Pseudomonas aeruginosa; read-out: MIC of agent alone
Method in brief: as §2

[7] = tested on: K. pneumoniae ATCC BAA 1705 KPC-2-positive; assay: combination disc test CDT-KPC; format: cell-based; conditions: Klebsiella pneumoniae, BAA1705, read-out: Diameter of inhibition zone, MEM-10 disc with agent; for zone of inhibition at 300 µg/disc: agent 0.3 mg per disc
[8] = tested on: P. aeruginosa MUW 700 cAmpC-positive; assay: combination disc test CDT-AmpC; format: cell-based; conditions: Pseudomonas aeruginosa, read-out: Diameter of inhibition zone, CAZ-30 disc with agent; for zone of inhibition at 300 µg/disc: agent 0.3 mg per disc
[9] = tested on: K. pneumoniae ATCC 700603 ESBL-positive; assay: combination disc test CDT-ESBL; format: cell-based; conditions: Klebsiella pneumoniae, ATCC700603, read-out: Diameter of inhibition zone, CAZ-30 disc with agent; for zone of inhibition at 300 µg/disc: agent 0.3 mg per disc
[10] = MTT-based viability assay; format: cell-based; conditions: human, MRC-5 human fibroblasts, 72 h; for viability at 72 h, 12.5 mg/L / viability at 72 h, 25 mg/L / viability at 72 h, 50 mg/L: read-out: Viability of MRC-5 cells (% of viable cells ± SD); for viability at 72 h: 12.5, 25 and 50 mg/L
Method in brief: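 MRC-5 human fibroblasts grown in MEME with 10% FBS at 37 °C, 5% CO2, tested by MTT with absorbance read at 570 nm. Viability given as percent of untreated control cells, in triplicate.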

Compound	MIC (E. faecalis ATCC 29212)	zone of inhibition at 0.4 mg/disc (E. faecalis ATCC 29212)	MIC (E. faecium ATCC 6057)	zone of inhibition at 0.4 mg/disc (E. faecium ATCC 6057)	MIC [1]	zone of inhibition at 0.4 mg/disc [1]	MIC (S. aureus ATCC 6538P)	zone of inhibition at 0.4 mg/disc (S. aureus ATCC 6538P)	MIC [2]	zone of inhibition at 0.4 mg/disc [2]	zone of inhibition at 0.4 mg/disc (B. subtilis ATCC 6633)	MIC (C. krusei ATCC 6258)	MIC (E. coli 76 KPC-2(+))	MIC (E. coli 77 CMY-2(+))	MIC [3]	MIC [4]	MIC [5]	viability at 72 h, 12.5 mg/L [10]	viability at 72 h, 25 mg/L [10]	viability at 72 h, 50 mg/L [10]	further results
OB(O)c1cc(Br)c(B(O)O)cc1Br [1i]	200 µg/mL (≈ 618 µM)	14 mm	200 µg/mL (≈ 618 µM)	11 mm	100 µg/mL (≈ 309 µM)	11 mm	25 µg/mL (≈ 77.3 µM)	14 mm	50 µg/mL (≈ 155 µM)	21 mm	18 mm	50 µg/mL (≈ 155 µM)	100 µg/mL	100 µg/mL	200 µg/mL	200 µg/mL	200 µg/mL	122%	114 ± 4.8%	101.4 ± 0.9%	zone of inhibition at 0.4 mg/disc (C. krusei ATCC 6258): 22 mm; MIC [6]: > 400 µg/mL; zone of inhibition at 100 µg/disc ([7]; agent 0.1 mg per disc): 6 mm; zone of inhibition at 100 µg/disc ([8]; agent 0.1 mg per disc): 16 mm; zone of inhibition at 100 µg/disc ([9]; agent 0.1 mg per disc): 14 mm
OB(O)c1ccc(F)cc1B(O)O [3c]	400 µg/mL (≈ 2180 µM)	–	400 µg/mL (≈ 2180 µM)	12 mm	400 µg/mL (≈ 2180 µM)	11 mm	200 µg/mL (≈ 1090 µM)	13 mm	100 µg/mL (≈ 544 µM)	24 mm	18 mm	200 µg/mL (≈ 1090 µM)	> 400 µg/mL	> 400 µg/mL	> 400 µg/mL	> 400 µg/mL	> 400 µg/mL	97.1 ± 6.9%	106 ± 4.5%	82.3 ± 12.9%	MIC [6]: > 400 µg/mL; zone of inhibition at 300 µg/disc [7]: 12 mm; zone of inhibition at 300 µg/disc [8]: 20 mm; zone of inhibition at 300 µg/disc [9]: 16 mm
OB(O)c1ccccc1S [7c, 2-mercaptophenylboronic acid]	25 µg/mL (≈ 162 µM)	23 mm	12.5 µg/mL (≈ 81.2 µM)	25 mm	25 µg/mL (≈ 162 µM)	22 mm	12.5 µg/mL (≈ 81.2 µM)	23 mm	12.5 µg/mL (≈ 81.2 µM)	30 mm	26 mm	50 µg/mL (≈ 325 µM)	> 200 µg/mL	> 200 µg/mL	> 200 µg/mL	> 200 µg/mL	> 200 µg/mL	56.4 ± 3%	6.6 ± 5.1%	0%	zone of inhibition at 0.4 mg/disc (C. krusei ATCC 6258): 16 mm; MIC [6]: > 200 µg/mL; zone of inhibition at 300 µg/disc [7]: 13 mm; zone of inhibition at 300 µg/disc [8]: 11 mm; zone of inhibition at 300 µg/disc [9]: 15 mm; viability at 72 h [10]: 0 to 56.4%
OB(O)c1cc(C(F)(F)F)cc(B(O)O)c1F [2e]	50 µg/mL (≈ 199 µM)	21 mm	100 µg/mL (≈ 397 µM)	18 mm	12.5 µg/mL (≈ 49.7 µM)	25 mm	6.25 µg/mL (≈ 24.8 µM)	29 mm	0.78 µg/mL (≈ 3.1 µM)	35 mm	20 mm	> 400 µg/mL	> 400 µg/mL	> 400 µg/mL	> 400 µg/mL	> 400 µg/mL	> 400 µg/mL	96.6 ± 6.4%	84.4 ± 4.8%	63.1 ± 1.4%	MIC [6]: > 400 µg/mL; zone of inhibition at 300 µg/disc [7]: 6 mm; zone of inhibition at 300 µg/disc [8]: 16 mm; zone of inhibition at 300 µg/disc [9]: 16 mm
OB(O)c1ccc(C(F)(F)F)cc1B(O)O [3e]	200 µg/mL (≈ 856 µM)	14 mm	200 µg/mL (≈ 856 µM)	13 mm	400 µg/mL (≈ 1710 µM)	15 mm	100 µg/mL (≈ 428 µM)	17 mm	200 µg/mL (≈ 856 µM)	21 mm	22 mm	25 µg/mL (≈ 107 µM)	> 400 µg/mL	> 400 µg/mL	> 400 µg/mL	> 400 µg/mL	> 400 µg/mL	98.8 ± 25.6%	92.9 ± 2.7%	64.4 ± 0.4%	zone of inhibition at 0.4 mg/disc (C. krusei ATCC 6258): 23 mm; MIC [6]: > 400 µg/mL; zone of inhibition at 300 µg/disc [7]: 6 mm; zone of inhibition at 300 µg/disc [8]: 17 mm; zone of inhibition at 300 µg/disc [9]: 14 mm
O=Cc1cc(F)ccc1B(O)O [7b]	200 µg/mL (≈ 1190 µM)	14 mm	200 µg/mL (≈ 1190 µM)	14 mm	50 µg/mL (≈ 298 µM)	20 mm	50 µg/mL (≈ 298 µM)	19 mm	50 µg/mL (≈ 298 µM)	30 mm	22 mm	25 µg/mL (≈ 149 µM)	–	–	–	–	–	48.9 ± 3.8%	6.4 ± 1.4%	0.9 ± 0.7%	MBC (S. aureus ATCC 6538P): 100 µg/mL (≈ 595 µM); MBC [2]: 100 µg/mL (≈ 595 µM); zone of inhibition at 0.4 mg/disc (C. krusei ATCC 6258): 28 mm; viability at 72 h [10]: 0 to 56.4%
